Among the data in US7160903B2, “Sulfonylaminocarboxylic acids” (Sanofi-Aventis Deutschland GmbH, priority 1997, dated 2007) are IC50 and melting point values, retold here.

Structures are written as SMILES. A value given as a limit tells only on which side of the number the result lay.

One data set concerns the target T1, stromelysin (MMP-3) (Homo sapiens, UniProt P08254).
T1 construct: enzymatic activity of the catalytic domains of human stromelysin and of neutrophil collagenase; made in house
The data set is described as follows: Enzymatic activity of the catalytic domain of human stromelysin (fluorogenic substrate). Format: biochemical. Conditions: pH=6.5, 15 min preincubation, fluorescence 328 nm (ex)/393 nm (em). The protocol:
(§1) Preparation and determination of the enzymatic activity of the catalytic domains of human stromelysin and of neutrophil collagenase:
(§2) The enzymes stromelysin (MMP-3) and neutrophil collagenase (MMP-8) were prepared according to Ye et al. (Biochemistry; 31 (1992) pages 11231–11235). To measure the enzyme activity or the enzyme inhibitor action, 70 μl of buffer solution and 10 μl of enzyme solution are incubated for 15 min with 10 μl of a 10% strength (v/v) aqueous dimethyl sulfoxide solution, which optionally contains the enzyme inhibitor. After addition of 10 μl of a 10% strength (v/v) aqueous dimethyl sulfoxide solution which contains 1 mmol/L of the substrate, the enzyme reaction is monitored by fluorescence spectroscopy (328 nm (ex)/393 nm(em)). The enzyme activity is shown as the extinction increase/min. The IC50 values listed in Table 2 are determined as those inhibitor concentrations which in each case led to a 50% inhibition of the enzyme.
(§3) The buffer solution contains 0.05% Brij (Sigma, Deisenhofen, Germany) and also 0.1 mol/L Tris/HCl, 0.1 mol/L NaCl, 0.01 mol/L CaCl2 and 0.1 mol/L piperazine-N,N′-bis[2-ethanesulfonic acid] (pH=6.5). The enzyme solution contains 5 μg/ml of one of the enzyme domains prepared according to Ye et al. The substrate solution contains 1 mmol/L of the fluorogenic substrate (7-methoxycoumarin-4-yl)acetyl-Pro-Leu-Gly-Leu-3-(2′,4′-dinitrophenyl)-L-2,3-diaminopropionyl-Ala-Arg-NH2 (Bachem, Heidelberg, Germany).

Data set [1] addresses T2, neutrophil collagenase (MMP-8) (Homo sapiens, UniProt P22894).
T2 construct: enzymatic activity of the catalytic domains of human stromelysin and of neutrophil collagenase; made in house
The data set is described as follows: Enzymatic activity of the catalytic domain of neutrophil collagenase (fluorogenic substrate). The note with it: pH=6.5, 15 min preincubation, fluorescence 328 nm (ex)/393 nm (em), read-out: Neutr. collagenase IC50. It counts as biochemical. The protocol:
as §1, §2, §3

T2 sequence (P22894 100-262 limits assumed): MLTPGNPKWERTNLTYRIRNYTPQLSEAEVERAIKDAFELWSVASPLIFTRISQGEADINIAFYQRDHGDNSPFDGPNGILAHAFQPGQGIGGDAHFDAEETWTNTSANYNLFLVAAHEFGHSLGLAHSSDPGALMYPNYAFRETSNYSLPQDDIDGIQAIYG
T1 sequence (P08254 100-272 limits assumed): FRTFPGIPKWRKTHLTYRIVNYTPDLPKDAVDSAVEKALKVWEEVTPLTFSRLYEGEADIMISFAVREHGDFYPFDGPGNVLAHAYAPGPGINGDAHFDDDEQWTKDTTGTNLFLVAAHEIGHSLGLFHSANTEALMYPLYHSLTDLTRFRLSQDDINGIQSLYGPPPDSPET

As for `CNC(=O)c1ccc(NC(=O)CC[C@H](NS(=O)(=O)c2ccc(-c3ccccc3)cc2)C(=O)O)cc1` [Example 83], the melting point is 250 to 250.5 °C. Besides, the half-inhibitory concentration (IC50) at stromelysin (MMP-3) turned out to be 1000 nM. Besides, the IC50 in data set [1] was 20 nM.

`CC(=O)Nc1ccc(NC(=O)CC[C@H](NS(=O)(=O)c2ccc(-c3ccccc3)cc2)C(=O)O)cc1` [Example 99]: the melting point is > 230 °C (dec.). At stromelysin (MMP-3), this compound had a half-maximal inhibitory concentration (IC50) of 700 nM. Further, the IC50 in data set [1] was determined as 50 nM.

In turn, `CSCC[C@@H](NS(=O)(=O)c1ccc(-c2ccc(N(C)C)cc2)cc1)C(=O)O` [Example 11] showed a melting point of 180 to 186 °C. This compound also gave a half-maximal inhibitory concentration (IC50) on stromelysin (MMP-3) of 90 nM. Besides, the IC50 in data set [1] was 3 nM.

Compound `O=C(O)[C@H](Cc1cn(S(=O)(=O)c2ccc(Oc3ccccc3)cc2)cn1)NS(=O)(=O)c1ccc(Oc2ccccc2)cc1` [Example 31] displayed a melting point of 120 to 122 °C. On stromelysin (MMP-3), this compound yielded a 50% inhibitory concentration (IC50) of 1000 nM. Besides, the IC50 in data set [1] turned out to be 50 nM.

As to `C[C@H](O)[C@H](NS(=O)(=O)c1ccc(Oc2ccccc2)cc1)C(=O)O` [Example 9], the melting point was in the range of 96 to 98 °C. Besides, on stromelysin (MMP-3), the IC50 came to 300 nM. In data set [1], the IC50 worked out at 20 nM.

For the compound `O=C(CC[C@H](NS(=O)(=O)c1ccc(-c2ccccc2)cc1)C(=O)O)Nc1ccncc1` [Example 97], the melting point was > 290 °C (dec.). On stromelysin (MMP-3), this compound registered an IC50 of 1000 nM. Moreover, the IC50 in data set [1] was found to be 30 nM.

Consider `CN(C)c1ccc(-c2ccc(S(=O)(=O)N[C@@H](CCC(=O)Nc3ccccc3)C(=O)O)cc2)cc1` [Example 81], for which the melting point is 240.5 to 241.5 °C (dec.). At stromelysin (MMP-3), this compound showed an IC50 of 10 nM. Also, the IC50 in data set [1] was found to be 2 nM.

Take `CSCC[C@H](NC(=O)CC[C@H](NS(=O)(=O)c1ccc(-c2ccc(N(C)C)cc2)cc1)C(=O)O)C(=O)O` [Example 62]: the melting point was determined as 121 °C. In addition, inhibition against stromelysin (MMP-3) was half-maximal at 7 nM (IC50). Also, in data set [1], the 50% inhibitory concentration (IC50) was 2 nM.

In turn, `O=C(O)[C@@H](Cc1ccccc1)NS(=O)(=O)c1ccc(-c2ccc(C(F)(F)F)cc2)cc1` [Example 20] registered a melting point of 159 to 162 °C. This compound gave an IC50 against stromelysin (MMP-3) of 400 nM. In addition, the IC50 in data set [1] came to 20 nM.

With `O=C(CC[C@H](NS(=O)(=O)c1ccc(-c2ccc(Cl)cc2)cc1)C(=O)O)Nc1ccc(F)cc1` [Example 87], the melting point is > 245 °C (dec.). The same compound displayed a concentration for half-maximal inhibition (IC50) against stromelysin (MMP-3) of 30 nM. The half-inhibitory concentration (IC50) in data set [1] amounted to 5 nM.

On to `O=C(CC[C@H](NS(=O)(=O)c1ccc(-c2ccccc2)cc1)C(=O)O)Nc1ccc(F)c(Cl)c1` [Example 96], for which the melting point was > 245 °C (dec.). For the same compound, the midpoint of inhibition against stromelysin (MMP-3), the IC50, lay at 600 nM. In data set [1], the IC50 is 20 nM.

In the case of `O=C(CC[C@H](NS(=O)(=O)c1ccc(-c2ccc(N3CCCC3)cc2)cc1)C(=O)O)Nc1ccccc1` [Example 80], the melting point is > 228 °C (dec.). This compound also returned an IC50 on stromelysin (MMP-3) of 7 nM. In data set [1], the half-maximal inhibitory concentration (IC50) was 2 nM.

The IC50 is the concentration needed to halve the response being measured. Usually melting point stands for the temperature of the solid-liquid transition.
